Laboratory results reported in US20130184222A1, “[…] ACTIVE COMPOSITIONS AND THEIR METHODS OF USE” (AGIOS PHARMACEUTICALS, INC, priority 2010, published 2013).

Experiments:
HT1080 cells = experiment: Cellular assay: inhibition of 2-HG production in HT1080 cells (LC-MS, 48 hours); format: cell-based; conditions: Homo sapiens, HT-1080, 2-HG in media by LC-MS
Procedure: (§1) Cells (HT1080 or U87MG) were grown in T125 flasks in DMEM containing 10% FBS, 1× penicillin/streptomycin and 500 ug/mL G418 (present in U87MG cells only). They were harvested by trypsin and seeded into 96 well white bottom plates at a density of 5000 cell/well in 100 ul/well in DMEM with 10% FBS. No cells were placed in columns 1 and 12. Cells were incubated overnight at 37° C. in 5% CO2. The next day test compounds were made up at 2× the final concentration and 100 ul were added to each cell well. The final concentration of DMSO was 0.2% and the DMSO control wells were plated in row G. The plates were then placed in the incubator for 48 hours. At 48 hours, 100 ul of media was removed from each well and analyzed by LC-MS for 2-HG concentrations. The cell plate was placed back in the incubator for another 24 hours. At 72 hours post compound addition, 10 mL/plate of Promega Cell Titer Glo reagent was thawed and mixed. The cell plate was removed from the incubator and allowed to equilibrate to room temperature. Then 100 ul of Promega Cell Titer Glo reagent was added to each well of media. The cell plate was then placed on an orbital shaker for 10 minutes and then allowed to sit at room temperature for 20 minutes. The plate was then read for luminescence with an integration time of 500 ms.

IDH1 R132H = IDH1 R132H (Homo sapiens, UniProt O75874, R132H); experiment: In vitro assay for IDH1 R132H inhibitors (NADPH/aKG, resazurin detection); format: biochemical; conditions: Table 4B; 0.2 μg/ml IDH1 R132H, 50 minutes at room temperature; read-out: IC50, IDH1 R132H Inhibition
Sequence of IDH1 R132H (O75874 whole entry R132H): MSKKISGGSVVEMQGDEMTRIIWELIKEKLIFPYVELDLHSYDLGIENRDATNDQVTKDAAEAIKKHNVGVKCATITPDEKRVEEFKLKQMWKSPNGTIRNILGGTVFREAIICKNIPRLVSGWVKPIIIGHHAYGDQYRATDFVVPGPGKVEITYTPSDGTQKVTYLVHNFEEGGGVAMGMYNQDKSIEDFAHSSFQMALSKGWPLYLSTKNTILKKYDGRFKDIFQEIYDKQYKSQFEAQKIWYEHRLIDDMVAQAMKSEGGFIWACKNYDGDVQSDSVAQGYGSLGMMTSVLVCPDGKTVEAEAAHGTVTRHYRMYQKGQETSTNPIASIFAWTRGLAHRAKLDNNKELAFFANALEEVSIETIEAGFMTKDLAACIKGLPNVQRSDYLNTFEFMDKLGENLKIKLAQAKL
How it was run: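 Reaction ran 50 min at room temperature in Tris pH 7.5 buffer with 150 mM NaCl, 10 mM MgCl2 and 0.03% BSA. Mix concentrations were 0.2 μg/ml mutant enzyme, 8 uM NADPH and 2 mM aKG. Detection added 30 μM resazurin, with resorufin fluorescence (Ex544/Em590) measured 5 min later.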

U87MG cells = experiment: Cellular assay: inhibition of 2-HG production in U87MG cells (LC-MS, 48 hours); format: cell-based; conditions: Homo sapiens, U-87 MG, 2-HG in media by LC-MS
Procedure: as §1

Row | Structure (SMILES) | IC50 (HT1080 cells) [µM] | IC50 (IDH1 R132H) [µM] | IC50 (U87MG cells) [µM]
1 | Cc1ccccc1C(C(=O)NC1CCCCC1)N(C(=O)c1ccc(O)cc1)c1cccc(F)c1 (stereo not drawn) [Compound 216] | 1 to 5 | 0.1 to 1 | 0.25 to 1
2 | COc1ccc(CNCC(=O)N(c2cccc(F)c2)C(C(=O)NC2CCCCC2)c2ccccc2C)cc1 (stereo not drawn) [Compound 219] | 1 to 5 | 0.1 to 1 | 1 to 5
3 | COc1ccccc1CNCC(=O)N(c1cccc(F)c1)C(C(=O)NC1CCCCC1)c1ccccc1C (stereo not drawn) [Compound 220] | 1 to 5 | 0.1 to 1 | 1 to 5
4 | COc1cccc(CNCC(=O)N(c2cccc(F)c2)C(C(=O)NC2CCCCC2)c2ccccc2C)c1 (stereo not drawn) [Compound 221] | 1 to 5 | 0.1 to 1 | 1 to 5
5 | Cc1ccccc1C(C(=O)NC1CCCCC1)N(C(=O)Cn1ccnc1C)c1cccc(NC(=O)OC(C)(C)C)c1 (stereo not drawn) [Compound 225] | 1 to 5 | 0.1 to 1 | ≤ 0.25
6 | Cc1ccccc1C(C(=O)NC1CCCCC1)N(C(=O)Cn1ccnc1C)c1cccc(N)c1 (stereo not drawn) [Compound 226] | 1 to 5 | 0.1 to 1 | ≤ 0.25
7 | Cc1ccccc1C(C(=O)NC1CCCCC1)N(C(=O)COC1CCCC1)c1cccc(F)c1 (stereo not drawn) [Compound 230] | 1 to 5 | 0.1 to 1 | 1 to 5
8 | Cc1ccccc1C(C(=O)NC1CCCCC1)N(C(=O)Cn1ccnc1C)c1cccc(N2CCOCC2)c1 (stereo not drawn) [Compound 231] | 1 to 5 | 0.1 to 1 | ≤ 0.25
9 | Cc1ccccc1C(C(=O)NC1CCCCC1)N(C(=O)Cn1ccnc1C)c1cccc(N2CCN(C(=O)OC(C)(C)C)CC2)c1 (stereo not drawn) [Compound 232] | 1 to 5 | 0.1 to 1 | ≤ 0.25
10 | CC(=O)Nc1cccc(N(C(=O)Cn2ccnc2C)C(C(=O)NC2CCCCC2)c2ccccc2C)c1 (stereo not drawn) [Compound 236] | > 5 | 0.1 to 1 | 1 to 5
11 | COC(=O)Nc1cccc(N(C(=O)Cn2ccnc2C)C(C(=O)NC2CCCCC2)c2ccccc2C)c1 (stereo not drawn) [Compound 241] | 1 to 5 | 0.1 to 1 | 0.25 to 1
12 | Cc1ccccc1C(C(=O)NC1CCCCC1)N(C(=O)Cn1ccnc1C)c1ccn(C)n1 (stereo not drawn) [Compound 246] | 1 to 5 | 0.1 to 1 | 0.25 to 1
13 | Cc1ccccc1C(C(=O)NC1CCCCC1)N(C(=O)CN1CCN(C(=O)O[C@H]2CCOC2)CC1)c1cccc(F)c1 (stereo partly drawn) [Compound 248] | 1 to 5 | 0.1 to 1 | 1 to 5
14 | CCOC(=O)N1CCN(CC(=O)N(c2cccc(F)c2)C(C(=O)NC2CCCCC2)c2ccccc2C)CC1 (stereo not drawn) [Compound 249] | 0.25 to 1 | 0.1 to 1 | 0.25 to 1
15 | Cc1ccccc1C(C(=O)NC1CCCCC1)N(C(=O)CN1CCN(C(=O)OC(C)C)CC1)c1cccc(F)c1 (stereo not drawn) [Compound 250] | 1 to 5 | 0.1 to 1 | 1 to 5
16 | Cc1ccccc1C(C(=O)NC1CCCCC1)N(C(=O)CO[C@H]1CCOC1)c1cccc(F)c1 (stereo partly drawn) [Compound 251] | 0.25 to 1 | 0.1 to 1 | 0.25 to 1
17 | Cc1ccccc1C(C(=O)NC1CCCCC1)N(C(=O)Cn1ccc2ncccc21)c1cccc(F)c1 (stereo not drawn) [Compound 252] | 1 to 5 | 0.1 to 1 | 0.25 to 1

Now from value to compound:

Row | IC50 (HT1080 cells) [µM] | IC50 (IDH1 R132H) [µM] | IC50 (U87MG cells) [µM] | Structure (SMILES)
18 | ≤ 0.25 | ≤ 0.1 | ≤ 0.25 | CC(=O)Oc1ccc(CC(=O)N(c2cccc(F)c2)C(C(=O)NC2CCCCC2)c2ccccc2C)cc1 (stereo not drawn) [Compound 212]
19 | 0.25 to 1 | ≤ 0.1 | 0.25 to 1 | Cc1ccccc1C(C(=O)NC1CCCCC1)N(Cc1cccs1)C(=O)Cc1c[nH]c2ncccc12 (stereo not drawn) [Compound 213]
20 | 0.25 to 1 | 0.1 to 1 | 0.25 to 1 | CC(=O)Oc1ccc(C(=O)N(c2cccc(F)c2)C(C(=O)NC2CCCCC2)c2ccccc2C)cc1 (stereo not drawn) [Compound 215, Acetic acid 4-[(cyclohexylcarbamoyl-o-tolyl-methyl)-(3-fluoro-phenyl)-carbamoyl]-phenyl ester]
21 | ≤ 0.25 | ≤ 0.1 | ≤ 0.25 | Cc1ccccc1C(C(=O)NC1CCCCC1)N(C(=O)Cc1ccc(O)cc1)c1cccc(F)c1 (stereo not drawn) [Compound 217, N-Cyclohexyl-2-{(3-fluoro-phenyl)-[2-(4-hydroxy-phenyl)-acetyl]-amino}-2-o-tolyl-acetamide]
22 | 0.25 to 1 | ≤ 0.1 | 0.25 to 1 | COc1ccccc1NCC(=O)N(c1cccc(F)c1)C(C(=O)NC1CCCCC1)c1ccccc1C (stereo not drawn) [Compound 218]
23 | 0.25 to 1 | 0.1 to 1 | 1 to 5 | Cc1ccccc1C(C(=O)NC1CCCCC1)N(C(=O)COCc1ccccc1F)c1cccc(F)c1 (stereo not drawn) [Compound 222]
24 | 0.25 to 1 | 0.1 to 1 | ≤ 0.25 | Cc1ccccc1C(C(=O)NC1CCCCC1)N(C(=O)Cn1ccnc1C)c1cccc(-c2cnn(C)c2)c1 (stereo not drawn) [Compound 223]
25 | 0.25 to 1 | 0.1 to 1 | 0.25 to 1 | Cc1ccccc1C(C(=O)NC1CCCCC1)N(C(=O)Cn1c(C)nc2ccccc21)c1ccn(C)n1 (stereo not drawn) [Compound 224]
26 | ≤ 0.25 | ≤ 0.1 | ≤ 0.25 | Cc1ccccc1C(C(=O)NC1CCCCC1)N(C(=O)CNc1ccc(C#N)cc1)c1cccc(F)c1 (stereo not drawn) [Compound 227]
27 | 0.25 to 1 | ≤ 0.1 | 0.25 to 1 | Cc1ccccc1C(C(=O)NC1CCCCC1)N(Cc1cccs1)C(=O)CNc1ccc(C#N)cc1 (stereo not drawn) [Compound 228]
28 | 0.25 to 1 | 0.1 to 1 | 1 to 5 | Cc1ccccc1C(C(=O)NC1CCCCC1)N(C(=O)COCc1ccncc1)c1cccc(F)c1 (stereo not drawn) [Compound 229]
29 | 0.25 to 1 | 0.1 to 1 | 1 to 5 | Cc1ccccc1C(C(=O)NC1CCCCC1)N(C(=O)COCc1cccnc1)c1cccc(F)c1 (stereo not drawn) [Compound 233]
30 | 0.25 to 1 | ≤ 0.1 | 1 to 5 | Cc1ccccc1C(C(=O)NC1CCCCC1)N(C(=O)CNc1ccc(F)nc1)c1cccc(F)c1 (stereo not drawn) [Compound 237]
31 | 0.25 to 1 | 0.1 to 1 | 1 to 5 | Cc1ccccc1C(C(=O)NC1CCCCC1)N(C(=O)Cc1c[nH]c2ccccc12)c1ccn(C)n1 (stereo not drawn) [Compound 238]
32 | 0.25 to 1 | 0.1 to 1 | ≤ 0.25 | Cc1nccn1CC(=O)N(c1cccc(F)c1)[C@H](C(=O)NC1CCCCC1)c1ccccc1 [Compound 239]
33 | 0.25 to 1 | ≤ 0.1 | 1 to 5 | Cc1ccccc1C(C(=O)NC1CCCCC1)N(C(=O)Cn1ccc(F)cc1=N)c1cccc(F)c1 (stereo not drawn) [Compound 240]
34 | 0.25 to 1 | 0.1 to 1 | 0.25 to 1 | Cc1ccccc1C(C(=O)NC1CCCCC1)N(C(=O)Cc1cn(C)c2ccccc12)c1cccc(F)c1 (stereo not drawn) [Compound 243]
35 | 0.25 to 1 | 0.1 to 1 | 1 to 5 | Cc1ccccc1C(C(=O)NC1CCCCC1)N(C(=O)Cc1cn(C)c2ccccc12)c1ccn(C)n1 (stereo not drawn) [Compound 244]
36 | 0.25 to 1 | 0.1 to 1 | 1 to 5 | Cc1ccccc1C(C(=O)NC1CCCCC1)N(C(=O)CN1CCCc2ccccc21)c1ccn(C)n1 (stereo not drawn) [Compound 245]
37 | ≤ 0.25 | ≤ 0.1 | 0.25 to 1 | COc1cccc(NCC(=O)N(c2cccc(F)c2)C(C(=O)NC2CCCCC2)c2ccccc2C)c1 (stereo not drawn) [Compound 247]
38 | ≤ 0.25 | ≤ 0.1 | 0.25 to 1 | Cc1ccccc1C(C(=O)NC1CCCCC1)N(C(=O)CNc1ccc(F)cn1)c1cccc(F)c1 (stereo not drawn) [Compound 253]
